This is an account of results in patent publication US20160287553A1, “TRANSLATION INHIBITORS IN HIGH-DOSE CHEMO- AND/OR HIGH-DOSE RADIOTHERAPY” (DEUTSCHES KREBSFORSCHUNGSZENTRUM, priority 2013, published 2016).

“Also recorded” adds a separate entry of the source.

Experiment [1] relates to Peripheral blood T cells. The experiment in a line: Etoposide-induced apoptotic cell death of T cells (DNA fragmentation, AnnexinV, FSC/SSC). The protocol: The human malignant cell lines EU-3 (acute lymphoblastic leukemia), DND-41 (T cell leukemia), Hut-78 (T cell lymphoma), SKW6.4 (B cell leukemia), Reh (acute lymphoblastic leukemia), IM-9 (Chronic myeloid leukemia), HL-60 (promyelocytic leukemia), L1236 (Hodgkin's lymphoma) and NCI-H209 (small cell lung cancer) were cultured at 37° C. with 5% CO2 in RPMI-1640 medium (Sigma-Aldrich, Munich, Germany) supplemented with 10% FCS, 100 U/ml Penicillin (Sigma-Aldrich, Munich, Germany) and 100 μg/ml Streptamycin (Sigma-Aldrich, Munich, Germany) SCLC-21H cells (small cell lung cancer) were cultured in DMEM medium (Sigma-Aldrich, Munich, Germany) supplemented with 10% FCS. Peripheral blood T lymphocytes were isolated as previously described (Klas et al., Int Immunol. 1993; 5: 625-630). B lymphocytes and NK cells were isolated by magnetic activated cell sorting using “B cell isolation kit II” (Miltenyi Biotech, Bergisch Gladbach, Germany) and “NK cell isolation kit, human” (Miltenyi Biotech, Bergisch Gladbach, Germany), respectively, according to the manufacturer's instructions. Human neutrophils were separated from peripheral blood mononuclear cells by Ficoll-Paque density centrifugation, followed by incubation in 1.05% dextran for 30 min at room temperature. Remaining erythrocytes were lysed by resuspension in ice-cold 0.2% sodium chloride solution. After 1 min ice-cold 1.6% sodium-chloride solution was added and lysis was stopped by addition of PBS and neutrophils were resuspended in medium at a concentration of 2×10^6 cells/ml. Human primary cardiomyocytes were purchased from PromoCell (Heidelberg, Germany) and cultured in Myocyte Growth Medium (PromoCell, Heidelberg, Germany). Remaining primary human cells were cultured in RPMI-1640 medium with the same conditions described above.
Apoptotic cell death was determined by AnnexinV staining, cellular forward scatter/side scatter (FSC/SSC) profile, or DNA fragmentation. For AnnexinV staining, 2×10^5 cells were treated with different drugs for indicated time periods, washed with AnnexinV binding buffer (0.01 M Hepes, 0.14 M NaCl, 2.5 mM CaCl2), and stained with AnnexinV-FITC antibody (Immunotools, Friesoythe, Germany) and 7-amino-actinomycin D (Sigma-Aldrich, Munich, Germany) for 30 min at 4° C. The amount of AnnexinV positive cells was determined by FACS measurement. DNA fragmentation was determined according to the method of Nicoletti (Nicoletti et al., J Immunol Methods. 1991; 139: 271-279). Briefly, 2×10^5 cells were treated as indicated, washed with PBS and lysed in Nicoletti buffer (0.1% sodium citrate, 0.1% Triton X-100, 50 μg/ml propidium iodide). DNA fragmentation was determined by FACS. Apoptosis-like cells were determined by forward scatter and side scatter (FSC/SSC) index. Specific DNA fragmentation/specific AnnexinV positive cells/specific apoptosis was calculated as follows: (percentage of experimental DNA fragmentation (or Annexin V positive cells or apoptosis)−percentage of spontaneous DNA fragmentation (or Annexin V positive cells or apoptosis)/(100−percentage of spontaneous DNA fragmentation (or Annexin V positive cells or apoptosis))×100.

The subject of experiment [2] is HL-60 (promyelocytic leukemia), p53-deficient. Put plainly: Etoposide-induced cell death in HL-60. The conditions noted are these: HL-60 (FIG. 5a). The format is cell-based, human. The protocol: (§1) DNA fragmentation was determined by FACS.
(§2) Since Roc-A-mediated protection of non-malignant cells from DNA-damage-induced cell death is largely p53-dependent, we predicted that Roc-A would not protect cancer cells which have non-functional p53. […] 1997; 19: 243-253), Reh (Zhou et al, loc cit.), SKW6.4 (Barbarotto et al., J Cell Biochem. 2008; 104: 595-605) and NCI-H209 (Fujita et al. Int J Oncol. 1999; 15: 927-934) which have a WT p53 protein.

Experiment [3] has as its system SCLC-21H cells (small cell lung cancer), p53 mutated. The experiment in a line: Etoposide-induced cell death in SCLC-21H. The conditions noted are these: SCLC-21H (FIG. 5a). The experiment is classed as cell-based, human. The protocol:
as §1, §2

Experiment [4] has as its system γ-H2AX. The experiment is classed as cell-based. The conditions noted are these: Roc-A 75 nM, T cells (FIG. 2a-b).
Experimental: DNA damage was determined by quantification of γ-H2AX foci formation and by alkaline single-cell gel electrophoresis assay (comet assay). For γ-H2AX staining, cells were treated as indicated, fixed in 3% formaldehyde and permeabilized in 90% methanol. Following storage at −20° C. overnight, cells were incubated with mouse serum to block unspecific binding and stained with antibody directed against γ-H2AX (AlexaFluor 488-coupled, 2F3 [BioLegend, Fell, Germany]), or with isotype control antibody (AlexaFluor 488-coupled [BioLegend, Fell, Germany]). The amount of γ-H2AX foci formation was determined by FACS measurement. […] Nuclei were stained with DAPI mounting medium (Dianova, Hamburg, Germany). Comet assays were carried out as previously described (Greve et al., PloS one. 2012; 7: e47185). Briefly, electrophoresis of cellular genomic DNA was performed under alkaline conditions at 4° C. The amount of DNA damage was measured by “Olive Tail Moment”. Analysis of cellular DNA damage was carried out by fluorescence microscopy, using a fully automated cell scanning system Metafer-4 (Metasystems, Altlutβheim, Germany).
To address this question, we determined the level of the DNA-damage marker γ-H2AX, which is generated around the site of a DNA double-strand break (Rogakou et al., J Biol Chem. 1998; 273: 5858-5868).
Experiment [5] deals with Hut-78 (T cell lymphoma), p53 mutated. Put plainly: Etoposide-induced cell death in Hut-78. The conditions noted are these: Hut-78 (FIG. 5a). The format is cell-based, human. The protocol: as §1, §2
Experiment [6] concerns non-malignant cells. The experiment in a line: Fold change in cell death on raising the Etoposide dose, non-malignant cells (FIG. 9a-b). The experiment is classed as cell-based. To be noted: 75 nM Roc-A in parallel to Etoposide, 6.25 μM to 50 μM, 24 h. The protocol:
(a) Cells from (b) were grouped into malignant and non-malignant cells. Shown are means of three independent experiments. Abbreviations; HSPCs=hematopoietic stem and progenitor cells. (c-d) Malignant and non-malignant cells were exposed to ionizing radiation (IR) in the presence of 75 nM Roc-A or solvent (DMSO) and cell death was determined after 24 h by DNA fragmentation. Depicted is the fold-change in cell death that was measured when doses of IR were increased from 2 Gy to 10 Gy. (c) Cells from (d) were grouped into malignant and non-malignant cells. Shown are means of three independent experiments.
as §1
Roc-A specifically prevents the cause of chemotherapeutic and radiation-induced side-effects, i.e., the death of healthy cells. […] Consequently, high-dose therapy is not possible, as side effects would be too high.

Experiment [7] has as its system Splenocytes from p53-/- mice. Put plainly: Etoposide-induced cell death in p53 knock-out splenocytes. The experiment is classed as cell-based, mouse. To be noted: p53-KO splenocytes, 50 μM Etoposide, 75 nM Roc-A (FIG. 4b). The method, then: as §1
P53^−/− C57B1/6 mice (B6.Trp53tm1Tyj) were kindly provided by Liu H-K (German Cancer Research Center, Heidelberg, Germany). Spleens of 8-12 week old p53^−/−, and p53^+/+ mice were isolated in parallel, minced and incubated for 30 min in RPMI-1640 medium supplemented with DNase I (50 U/ml) and Collagenase IV (1 mg/ml) at 37° C. and 5% CO2. Splenocytes were filtered by […] cell strainer, washed twice with ice-cold wash buffer (PBS, 0.5% FCS, 2 mM EDTA) and resuspended in Oxford medium (RPMI 1640, 10% FCS, 100 μg/ml Penicillin, 100 μg/ml Streptamycin, 10 mM Hepes, 50 μM β-Mercaptoethanol, 2 mM L-glutamine, 1 mM sodium pyruvate, 100 μM non-essential amino acids) at a concentration of 2×10^6 cells/ml.
To further investigate the role of p53 in Roc-A-mediated protection of T cells against DNA damage-induced apoptosis, we performed a p53 knock-down experiment using a siRNA approach (FIG. 4a, upper panel). […] Therefore, we examined the effect of Roc-A on p53 knock-out (KO) cells.

Consider `COc1ccc([C@@]23Oc4cc(OC)cc(OC)c4[C@]2(O)[C@H](O)[C@H](C(=O)N(C)C)[C@H]3c2ccccc2)cc1` [Roc-A, (1R,2R,3S,3aR,8bS)-1,8b-dihydroxy-6,8-dimethoxy-3a-(4-methoxyphenyl)-N,N-dimethyl-3-phenyl-2,3-dihydro-1H-cyclopenta[b][1]benzofuran-2-carboxamide], for which the “Protection of normal T cells from Etoposide-induced cell death by Roc-derivatives” value in experiment [1] (50 μM Etoposide, 75 nM Roc-derivative, 24 h (FIG. 6b)) is reported as “different levels of protection”. In experiment [1] (50 μM Etoposide, different concentrations of Roc-A, indicated time-periods (FIG. 1a middle)), the “Toxicity of Etoposide, kinetic analysis” value is recorded as “could reduce the toxicity of Etoposide at all measured time points”. Moreover, the “Reduction of Etoposide-induced cell death of normal T cells” value in experiment [1] (24 h, increasing concentrations of Etoposide, different concentrations of Roc-A, dose-dependent (FIG. 1a left, FIG. 7)) is recorded as “more than 50%”. Moreover, the “Chemo-protective effect when Roc-A is administered after Etoposide” value in experiment [1] (Roc-A added 2 and 4.5 h after Etoposide (50 μM) (FIG. 1a right)) is recorded as “chemo-protective effect could be even seen”. For the same compound, in experiment [1] (Roc-A with Etoposide, FIG. 1a, FIG. 7), the “Protection of T cells from Etoposide-induced apoptotic cell death” value was “protects T cells from Etoposide-induced apoptotic cell death in a dose- and time-dependent manner; also recorded: reduces Etoposide-induced apoptosis in T cells”. For the same compound, the “Protection against Etoposide-induced cell death” value is reported as “did neither protect” in experiment [2], “did neither protect” in experiment [3], “did neither protect” in experiment [5] and “abolished; also recorded: not statistically significant” in experiment [7]. In experiment [4], the “Effect on Etoposide-induced γ-H2AX foci formation” value is given as “does not prevent Etoposide-induced increase in γ-H2AX; also recorded: did not block Etoposide-induced γ-H2AX foci formation”. For the same compound, in experiment [6], the “Change in cell death on increased Etoposide doses with Roc-A” value is listed as “only resulted in increased cell death in malignant cells”.
